One experiment concerns Protein Kinase C. The experiment is described as follows: Protein Kinase C activity (32P incorporation into histone). In kind it is biochemical, human (HL-60 cells). Here is the method:
PKC was prepared and assayed as described previously. See Daniel, L. W. et al., Biochem. Biophys. Res. Comm. 151, 291 (1988). In brief, HL-60 cells were grown in 75 milliliter flasks, harvested and washed with ice-cold normal saline. After centrifugation (600×g, 5 minutes, 4° Centigrade), the cell pellet was resuspended (20 mM Tris-HCl, pH 7.5, 2 mM EDTA, 10 mM EGTA, 50 mM 2-mercaptoethanol, 2 mM phenylmethylsulfonyl fluoride) and sonicated for 20 s with a stepped microprobe sonciator. Unbroken cells were removed by centrifugation as above and the supernatant centrifuged (65,000×g, 90 minutes, 4° Centigrade). The supernatant from this step (cytosol) was then fractionated on a 1×8 cm DEAE-Sephacel column after addition to sucrose to a final concentration of 10%. After equilibrating the column (20 mM Tris, pH 7.5, 0.2 mM EDTA, 0.2 mM EGTA, 50 mM 2-mercaptoethanol, 10% sucrose), the sample was loaded and unbound material was washed through with 40 milliliters of the equilibrating buffer. The PKC was eluted by a gradient from 0-0.5M NaCl in the buffer described above. Fractions of 1 milliliter were collected at 25 milliliters per hour and 0.05 milliliter aliquots assayed for PKC activity as described below. The fractions with the highest activity were pooled and used in further experiments.
The assays were done at pH 7.5 in a total volume of 0.25 milliliter and all tubes contained 25 mM Tris, 10 mM MgCl2, 40 μg per milliliter histone, 10 μM ATP (including 1 μCi of [gamma-^32 P]-ATP), 0.1 mM CaCl2, 20 μg per milliliter phosphatidylserine, 0.05 milliliter of the PKC preparation and 2.5 μM of oleoylacetylglycerol (OAG). Enzymatic activity was determined as the incorporation of ^32 P from [gamma-^32 P]-ATP) into histone in the presence of Ca^2+, phosphatidylserine, and OAG. Reactions were initiated by the addition of the enzyme preparation and halted after 20 minutes at 30° Centigrade by the addition of 0.05 milliliters of bovine serum albumin (10 milligrams per milliliter) and 1 milliliter 25% ice-cold trichloroacetic acid. The tubes were kept on ice and then filtered in a millipore vacuum box using Millipore® HA filters and washed with 25% trichloroacetic acid. The radioactivity bound to the filters was determined by scintillation spectrometry in 5 milliliters Budget Solve®. […] The analog to be tested was dissolved in ethanol, and added directly into the reaction mixture before the addition of PKC. As a control, 0.1% ethanol was included in the samples with the enzyme but with no inhibitor.

Experiment [1] concerns HL60 human leukemia cell line. The experiment in a line: HL60 cell growth inhibition (trypan blue, 48 h). Format: cell-based. The note with it: Homo sapiens, HL-60, 48 h, HL60, 48 hours; read-out: ID50 (the source's name). Here is the method:
A number of the compounds disclosed herein have been tested against the HL60 human leukemia cell line to assess their cytotoxic potential. These analogs were investigated in parallel with ET-18-OMe which was used as the reference compound. The methodologies used in this investigation were the same as described in A. Noseda, M. Berens, C. Piantadosi, and E. J. Modest, Lipids 22, 878-883, 1987. In brief, HL60 cells at a concentration of […] were incubated in wells with one milliliter medium with the experimental drug in parallel with the same concentration of cells with ET-18-OMe (standard) or EtOH (control). After 48 hours of incubation the cells were counted using the trypan blue dye exclusion technique to determine the effect of the drug on cell growth. The experimental drug and ET-18-OMe were tested at the same concentrations, e.g., 10, 5, 2.5 and 1.25 μM.

A further experiment relates to KB cells. The experiment is described as follows: Cytostatic activity on KB cells. In kind it is cell-based. The note with it: Homo sapiens, read-out: IC50 KB. Here is the method: (§1) All cells were grown in Eagle's minimum essential medium supplemented with 10% fetal bovine serum with the exception of HL-60 and K562-4 cells which were grown in RPMI 1640 medium supplemented with 10% fetal bovine serum. The KB and MH1 C1 cells, from a human nasopharyngeal carcinoma and rat hepatoma, respectively, were from American Type Culture Collection. The ChaGo cells, a human lung carcinoma, was generously provided by Dr. A. H. Tashjian. The human promyeloblastic leukemia cells, K562-4 were kindly supplied by Dr. Bismarck Lozzio. HL-60 cells, a human promyelocytic leukemia, and P388 cells, a mouse leukemia, were obtained from Dr. Y.-C. Cheng. The 77 cells were put into culture by us by excising the 7777, Morris hepatoma from a rat graciously supplied by the late Dr. H. P. Morris.
(§2) Cells were transferred or removed from monolayers for counting after a one or two minute incubation with 0.02% sodium ethylenediamine tetraacetate in phosphate-buffered saline to dislodge the cells. Flasks were seeded at a density of 1×10^3 cells per cm^2 or 2×10^4 per milliliter for suspension cultures. The HL-60 and K562-4 suspension cultures were used about 24 hours after seeding. The compounds to be tested were diluted to various concentrations and added to the monolayer cultures. All of the test compounds were dissolved in 10% dimethyl sulfoxide (DMSO) at concentrations that would give a final DMSO concentration of 0.1%. Control flasks contained 0.1% DMSO. Control cell replication was followed until approximately three doublings had occurred, and then all of the treated cells were counted.
(§3) The KB cells represented cells with low alkyl cleavage activity (less than the detectable level of 0.1-0.2 units per milligram protein by our assay procedure) and the 77 cells represented cells similar to normal cells with relatively high alkyl cleavage activity (1.6 units per milligram of protein). Our value for the cleavage activity of cultured 77 cells agrees well with the value of 1.4 units per milligram of protein reported by Soodsma et al, Cancer Res. 30, 309 (1970), for freshly excised 7777 Morris hepatoma tissue. In further confirmation of our assay procedure, we obtained a value of 12.6±4.1 units per milligram of protein in excised rat liver compared to 7.3 units per milligram of protein in rat liver measured by Soodsma et al.

The test system of the next experiment is 77 cells. The experiment is described as follows: Cytostatic activity on 77 cells. In kind it is cell-based, rat. To be noted: for IC50: 77 cells, after controls doubled three times; for 77/KB: ratio of IC50 values ± standard error of the quotient. Here is the method: as §1, §2, §3
[2] abbreviates: KB cells, after controls doubled three times.

Each structure is given as a SMILES string. Like-named read-outs stand apart in the source and are kept apart here. A value given as a limit tells only on which side of the number the result lay.

`CC1(C)OCC(C[N+](C)(C)CCO)O1` (stereo not shown) [F]: the “Percent Protein Kinase C Activity Retained” value in the experiment on Protein Kinase C (1.25 μM) was found to be 88%; with Protein Kinase C (2.5 μM) it was 84%; in the experiment with Protein Kinase C (5.0 μM) it was 87%; in the experiment on Protein Kinase C (10.0 μM) it was 88%; in the experiment with Protein Kinase C (20.0 μM), 96%; in the experiment with Protein Kinase C (40.0 μM) it was 87%.

In the case of `CCCCCCCCCCCCCCCCOCC(C[N+](C)(C)CCO)OC` (stereo not shown) [H], the “Percent Protein Kinase C Activity Retained” value in the experiment with Protein Kinase C (1.25 μM) came to 107%; in the experiment on Protein Kinase C (2.5 μM) it was 95%; with Protein Kinase C (5.0 μM) it was 87%; with Protein Kinase C (10.0 μM), 64%; in the experiment on Protein Kinase C (20.0 μM) it was 42%; in the experiment with Protein Kinase C (40.0 μM) it was 29%.

`CCCCCCCCCCCCCCCCCC1OCC(C[N+](C)(C)CCCO)O1` (racemic) [CJM 60, (±)-N-(2-heptadecyl-1,3-dioxolan-4-yl)methyl-N,N-dimethyl-gamma-hydroxypropyl ammonium bromide]: the IC50 in experiment [1] came out at 6500 nM.

For the molecule `CCCCCCCCCCCCCCOCC[N+](C)(C)CCO.[I-]` [IV, 2-tetradecyloxy-N,N-dimethyl-N-β-hydroxyethyl-1-ethyl ammonium iodide], the IC50 with KB cells (setting [2]) is 320 ± 120 nM. Besides, in the experiment on 77 cells, the IC50 is 1530 ± 230 nM and the 77/KB was found to be 4.8 ± 1.94.

For the molecule `CCCCCCCCCCCCOCC[N+](C)(C)CCO.[I-]` [III, 2-dodecyloxy-N,N-dimethyl-N-β-hydroxyethyl-1-ethyl ammonium iodide], the IC50 in the experiment on KB cells (setting [2]) was found to be 780 ± 30 nM. Further, in the experiment on 77 cells, the IC50 was determined as 4730 ± 870 nM and the 77/KB turned out to be 6.1 ± 1.15.

For `CCCCCCCCCCCCCCCCOCC(C[N+](C)(C)CCO)OC` (stereo not shown) [XII], the IC50 with KB cells (setting [2]) is 260 ± 50 nM. For the same molecule, in the experiment on 77 cells, the IC50 was 1270 ± 410 nM and the 77/KB is reported as 4.9 ± 1.84.

As for `CCCCCCCCCCCCCCCCOCC(C[N+]1(C)CCC(O)CC1)OCC` (racemic) [CJM PIPER, (±)-1-methyl-1-(3-hexadecyloxy-2-ethoxypropyl)-4-hydroxy piperidinium iodide], the IC50 in experiment [1] came to 2800 nM.

`CCCCCCCCCCCCCCCCSCC(C[N+](C)(C)CCCO)OCC` (stereo not shown) [C]: the “Percent Protein Kinase C Activity Retained” value with Protein Kinase C (1.25 μM) stood at 78%; in the experiment with Protein Kinase C (2.5 μM) it was 64%; with Protein Kinase C (5.0 μM), 67%; with Protein Kinase C (10.0 μM) it was 60%; in the experiment on Protein Kinase C (20.0 μM) it was 59%; with Protein Kinase C (40.0 μM), 37%.

Regarding `CCCCCCCCCCCCCCCCOCC[N+](C)(C)CCO.[I-]` [V, 2-hexadecyloxy-N,N-dimethyl-N-β-hydroxyethyl-1-ethyl ammonium iodide], the IC50 turned out to be 330 ± 120 nM in the experiment on KB cells (setting [2]) and 1420 ± 500 nM with 77 cells. The 77/KB in the experiment with 77 cells is listed as 4.3 ± 2.15.

`CCCCCCCCCCCCCCCCOCCC[N+](C)(C)C` [KLM 69, 3-hexadecyloxy-N,N,N-trimethyl-1-propyl ammonium bromide]: the IC50 in experiment [1] was determined as 1600 nM.

As to `CCCCCCCCCCCCCCCCOCC[N+](C)(C)CCCCO.[I-]` [VII, 2-hexadecyloxy-N,N-dimethyl-N-delta-hydroxybutyl-1-ethyl ammonium iodide], the IC50 with KB cells (setting [2]) turned out to be 440 ± 110 nM; in the experiment with 77 cells, 2270 ± 930 nM. Moreover, in the experiment on 77 cells, the 77/KB worked out at 5.2 ± 2.50.

As for `C[N+](C)(CCO)CCOc1ccccc1` [IX, 2-Phenoxy-N,N-dimethyl-N-β-hydroxyethyl-1-ethyl ammonium iodide], the IC50 in the experiment on KB cells (KB) is more than 100000 nM.

Turning to `CCCCCCCCCCCCCCCCCC(=O)OCC[N+](C)(C)CCO` [II, 2-octadecanoyloxy-N,N-dimethyl-N-β-hydroxyethyl-1-ethyl ammonium iodide], the IC50 with KB cells (setting [2]) was found to be 16000 nM.

As to `COC(COc1cccc2ccccc12)C[N+](C)(C)CCO` (stereo not shown) [E], the “Percent Protein Kinase C Activity Retained” value in the experiment on Protein Kinase C (1.25 μM) came to 99%; in the experiment on Protein Kinase C (2.5 μM), 99%; with Protein Kinase C (5.0 μM) it was 83%; in the experiment on Protein Kinase C (10.0 μM) it was 89%; in the experiment on Protein Kinase C (20.0 μM), 87%; in the experiment on Protein Kinase C (40.0 μM), 90%.

As to `CCCCCCCCCCCCCCCCOCCC[n+]1ccccc1` [KLM 70, 1-(3-hexadecyloxypropyl) pyridium bromide], the IC50 in experiment [1] was determined as 800 nM.

Take `CCCCCCCCCCCCCCCCSCC(C[N+](C)(C)C)OC` (stereo not shown) [D]: the “Percent Protein Kinase C Activity Retained” value with Protein Kinase C (1.25 μM) worked out at 112%; in the experiment with Protein Kinase C (2.5 μM) it was 88%; in the experiment with Protein Kinase C (5.0 μM), 81%; in the experiment on Protein Kinase C (10.0 μM) it was 74%; with Protein Kinase C (20.0 μM), 54%; in the experiment with Protein Kinase C (40.0 μM), 29%.

For `CCCCCCCCCCCCCCCCSCC(C[N+](C)(C)CCO)OC` (stereo not shown) [A], the “Percent Protein Kinase C Activity Retained” value in the experiment on Protein Kinase C (1.25 μM) came to 97%; in the experiment with Protein Kinase C (2.5 μM), 90%; with Protein Kinase C (5.0 μM) it was 73%; with Protein Kinase C (10.0 μM), 60%; in the experiment with Protein Kinase C (20.0 μM), 54%; with Protein Kinase C (40.0 μM) it was 42%.

As to `CCCCCCCCCCCCCCCCCCSCC(C[N+](C)(C)CCCO)OC` (racemic) [CJM 44, (±)-3-octadecylthio-2-methoxy-N,N-dimethyl-N-gamma-hydroxypropyl-1-propyl ammonium bromide], in experiment [1], the IC50 worked out at 3400 nM.

As for `CCCCCCCCCCCCCCCCCC1OCC(C[N+](C)(C)CCCO)O1` (stereo not shown) [G], the “Percent Protein Kinase C Activity Retained” value in the experiment on Protein Kinase C (1.25 μM) is 44%; in the experiment on Protein Kinase C (2.5 μM) it was 43%; in the experiment with Protein Kinase C (5.0 μM) it was 26%; in the experiment on Protein Kinase C (10.0 μM) it was 12%; with Protein Kinase C (20.0 μM) it was 9%; with Protein Kinase C (40.0 μM) it was 9%.

(Values after patent publication US5614548A, “Quaternary amine containing ether or ester lipid derivatives and therapeutic compositions” (priority 1994, dated 1997).)
